Holding throughout (type): physicochemical
Data set [1] is described as follows: Cetane number, ASTM D6890 / D613. The settings on record: for Cetane number: ASTM D6890. Here is the method:
“Cetane number” refers to a measure of how readily a fuel starts to burn (autoignite) under conditions described by ASTM D613 or ASTM D6890. A fuel with a high cetane number starts to burn shortly after it is injected into the cylinder; it has a short ignition delay period. Conversely, a fuel with a low cetane number resists autoignition and has a longer ignition delay period.
(§1) Fuel property testing of hydrogenated bisabolene was carried out using standard ASTM methods known to and used by those of skill in the art. Table 1 sets forth the various fuel properties analyzed for each of Diesel Fuel Grade #2, bisabolene (mixture of isomers) and hydrogenated bisabolene as well as the ASTM test methods employed to analyze the particular fuel property.

The nature of data set [2]: Cloud point, ASTM D5773 / D2500. Here is the method:
as §1

A short description of a further data set: Density, ASTM D4052. Particulars: ASTM D4052, 15.56° C. The procedure: “Density” refers to a measure of mass per volume at a particular temperature. The generally accepted method for measuring the density of a fuel is ASTM Standard D4052, which is incorporated herein by reference.
as §1

The nature of data set [3]: Distillation temperature, ASTM D2887 / D86. The procedure: as §1
The nature of another data set: Flash point, ASTM D93. Here is the method: as §1
A short description of the next data set: API gravity, ASTM D4052. The settings on record: ASTM D4052, 15.56° C. The procedure: as §1
The nature of a further data set: Freeze point, ASTM D5972. Here is the method:
as §1

Data set [4] is described as follows: Kinetic viscosity, ASTM D445. Particulars: ASTM D445, 40° C. The procedure:
“Viscosity” refers to a measure of the resistance of a fuel or fuel composition to deform under shear stress. The generally accepted method for measuring the viscosity of a fuel is ASTM Standard D445, which is incorporated herein by reference.
as §1

Marks after values point to notes of the source that are not given here.

The compound `CC(C)CCCC(C)C1CCC(C)CC1` (stereo not shown) [Hydrogenated biosynthetic bisabolene, 1(1,5-dimethylhexyl)-4-methylcyclohexane] gave a Cetane number in data set [1] of 52.6.

Turning to `CC(C)CCCC(C)C1CCC(C)CC1` (stereo not shown) [Hydrogenated commercial bisabolene, 1(1,5-dimethylhexyl)-4-methylcyclohexane], the Cloud point in data set [2] was less than −78 °C. The Cetane number in data set [1] is 41.9. The “Density (@ 15.56° C.)” value in the data set “Density, ASTM D4052” amounted to 819.7 kg/m^3. The Distillation in data set [3] is 267^d ° C. Also, the Flash point in the data set “Flash point, ASTM D93” amounted to 111 °C. In the data set “API gravity, ASTM D4052”, the “API Gravity (@ 15.56° C.)” value was found to be 41. For the same compound, in the data set “Freeze point, ASTM D5972”, the Freeze point was less than −81 °C. Further, the “Kinetic viscosity (@ 40° C.)” value in data set [4] was 2.91 mm^2/s.

`CC(C)CCCC(C)C1CCC(C)CC1` (stereo not shown) [hydrogenated bisabolene]: the “Derived Cetane Number (DCN)” value in data set [1] is “about 42”.

The values above are taken from patent US9109175B2, “Isoprenoid based alternative diesel fuel” (The Regents of the University of California, priority 2010, dated 2015).
